# According to US20220160750A1, “SINGLE-NUCLEI CHARACTERIZATION OF AMYOTROPHIC LATERAL SCLEROSIS FRONTAL CORTEX” (President and Fellows of Harvard College, priority 2020, published 2022):
# Where a SMILES comes first, the peptide text is derived from it. The star is where a group is joined. Cbz = O=C(OCc1ccccc1)*
# What was measured:
# [1] = tested on: neurons derived from human Pluripotent Stem Cells (hPSC); test: TDP-43 localisation (immunofluorescence) after proteasome inhibitor treatment of hPSC-derived neurons; type: cell-based; settings: MG132 applied for 24 hrs
# Experimental: (§1) In contrast, DEGs identified in THY1-cells were connected to cellular stresses previously associated with ALS^1,2 (FIG. 7D) and many were shared with transcriptional changes identified in patients' excitatory cells as a whole (FIG. 8B). […] It was next asked if aspects of these changes could be modeled in vitro using neurons derived from human Pluripotent Stem Cells (hPSC) (FIG. 15A).
# Human embryonic stem cells were cultured in mTESR (Stemcell technologies) on matrigel (Corning). Neurons were generated from HuES-3-Hb9:GFP based on the motor neuron differentiation protocol previously described^27. Upon completion of the differentiation protocol, cells were sorted via flow-cytometry based on GFP signal intensity to yield GFP-positive neurons that were plated on PDL/laminin-coated plates (Sigma, Life technologies). Neurons were maintained in Neurobasal medium (Life Technologies) supplemented with N2 (Stemcell technologies), B27 (Life technologies), glutamax (Life technologies), non-essential amino acids (Life technologies), and neurotrophic factors (BDNF, GDNF, CNTF), and were grown for 28 days before the application of the proteasome inhibitors MG132 for 24 hrs.
# [2] = tested on: neurons derived from human Pluripotent Stem Cells (hPSC); test: Bulk RNA-sequencing of hPSC-derived neurons after proteasome inhibitor treatment; type: cell-based; settings: MG132 applied for 24 hrs, compared with excitatory neurons from sALS patients
# Experimental: as §1
# Human embryonic stem cells were cultured in mTESR (Stemcell technologies) on matrigel (Corning). Neurons were generated from HuES-3-Hb9:GFP based on the motor neuron differentiation protocol previously described^27. Upon completion of the differentiation protocol, cells were sorted via flow-cytometry based on GFP signal intensity to yield GFP-positive neurons that were plated on PDL/laminin-coated plates (Sigma, Life technologies). […]
# RNA was extracted using RNeasy Plus kit (Qiagen), libraries were prepared using the Illumina TruSeq RNA kit v2 according to the manufacturer's directions, and sequenced at the Broad Institute core with samples randomly assigned between two flow chambers. […] The read counts were obtained from the aligned BAM-files in R using Rsubread. Differential gene expression was analyzed from the read counts in DESeq2 using a Wald's test for the treatment dosage and controlling for the sequencing flow cell.
smiles,measurement,setting,value
CC(C)C[C@@H](C=O)NC(=O)[C@H](CC(C)C)NC(=O)[C@H](CC(C)C)NC(=O)OCc1ccccc1 [MG132] (Cbz-Leu-Leu-Leu-aldehyde),nuclear loss of TDP-43,[1],sufficient to induce nuclear loss of TDP-43
same,transcriptomic changes after treatment (RNA-sequencing),[2],widespread transcriptomic changes after treatment
